pIC50: −log10 of the molar value. Calls of active or inactive are those of the source. The calls are words filed in the database; no cut-off is given here.
Each molecule was assayed on HEK-293T (assay: Cytoprotective activity against CdCl2-induced cell death in human HEK293T cells assessed as increase in cell viability preincubated for 2 hrs followed by CdCl2 treatment and measured after 48 hrs by MTT assay).
Type: functional, cell-based

Structure (SMILES)	pIC50
CC1=CC(=O)CC(C)(C)[C@@]1(O)/C=C/[C@@H](C)O[C@@H]1O[C@H](CO)[C@@H](O)[C@H](O)[C@H]1O [6S,9R-ROSEOSIDE]	4.25
OC[C@H]1O[C@@H](OCc2ccccc2)[C@H](O)[C@@H](O)[C@@H]1O	4.10

Each molecule was assayed on HEK-293T (assay: Cytoprotective activity against CdCl2-induced cell death in human HEK293T cells at 25 to 100 uM preincubated for 2 hrs followed by CdCl2 treatment and measured after 12 hrs by MTT assay).
Type: functional, cell-based

Structure (SMILES)	Activity
C[C@H](/C=C/[C@@]1(O)[C@H](C)CC(=O)CC1(C)C)O[C@@H]1O[C@H](CO)[C@@H](O)[C@H](OS(=O)(=O)O)[C@H]1O	Active
COc1cc(-c2oc3cc(O)cc(O)c3c(=O)c2O[C@@H]2O[C@H](CO[C@@H]3O[C@@H](C)[C@H](O)[C@@H](O)[C@H]3O)[C@@H](O)[C@H](O)[C@H]2O)ccc1O	Active
CC1=CC(=O)CC(C)(C)[C@@]1(O)/C=C/[C@@H](C)O[C@@H]1O[C@H](CO)[C@@H](O)[C@H](OS(=O)(=O)O)[C@H]1O	Active
CC1=CC(=O)CC(C)(C)[C@@]1(O)/C=C/[C@@H](C)O[C@@H]1O[C@H](CO)[C@@H](O)[C@H](O)[C@H]1O [6S,9R-ROSEOSIDE]	Active
C[C@@H]1O[C@@H](OC[C@H]2O[C@@H](Oc3c(-c4ccc(O)c(O)c4)oc4cc(O)cc(O)c4c3=O)[C@H](O)[C@@H](O)[C@@H]2O)[C@H](O)[C@H](O)[C@H]1O	Active
C[C@H](CCc1ccc(O)cc1)O[C@@H]1O[C@H](CO)[C@@H](O)[C@H](OS(=O)(=O)O)[C@H]1O	Active
OC[C@H]1O[C@@H](OCc2ccccc2)[C@H](O)[C@@H](O)[C@@H]1O	Active
O=c1c(O[C@@H]2O[C@H](CO)[C@@H](O)[C@H](O)[C@H]2O)c(-c2ccc(O)c(O)c2)oc2cc(O)cc(O)c12	Active
